Assay results: US20260027068A1, “METHODS OF ADM[…]-KETAMINE” (Perception Neuroscience, Inc., priority 2022, published 2026)

Test: Respiratory rate (vital signs)
Details: 30 mg
Experimental: The Investigational Medicinal Product (IMP) R(−)-ketamine hydrochloride in sterile water for intravenous injection was investigated as an […] treatment of TRD. The International Union of Pure and Applied Chemistry (IUPAC) name is of the IMP is (2R)-2-(2-chlorophenyl)-2-(methylamino)cyclohexan-1-one. Subjects received the solution at either 30 mg or 60 mg dose, or a placebo. The IMP or placebo was administered on Day 1 as a single IV infusion via an electronic infusion pump over 40 minutes. The duration of study participation for each subject was up to 29 days including a screening period, a 3-day in-clinic visit, and 2 follow-up visits. 101 subjects were enrolled in approximately 20 study centers in the EU and the US.
Tympanic or temporal temperature, heart rate, blood pressure (SBP/DBP), respiratory rate, and SpO2 were assessed. Blood pressure and pulse measurements will be assessed with a completely automated device while the subject is supine or semi-supine. Manual techniques will be used only if an automated device is not available. Blood pressure and pulse measurements should be preceded by at least 5 minutes of rest for the subject in a quiet setting without distractions (e.g., television, cell phones). An abnormal blood pressure value at screening may be repeated once after 5 minutes of relaxation to determine the subject's eligibility. Blood pressure was recorded using the same arm and position (supine or semi-supine) throughout the study, where possible. Vital signs (to be taken before blood collection for laboratory tests) consisted of 1 pulse and 3 blood pressure measurements (3 consecutive blood pressure readings will be recorded at intervals of at least 1 minute). The average of the 3 blood pressure readings was recorded in the CRF. A pulse oximeter was used to measure peripheral capillary oxygen saturation (SpO2) continuously from pre-dose until 4-hours post-dose. A pulse oximeter was clipped onto the finger or foot of the subject, and light will be sent through the finger or foot and measured on the other side.
In these tables, baseline value is defined as the last non-missing value prior to study drug administration.

CN[C@@]1(c2ccccc2Cl)CCCCC1=O.Cl [R(−)-ketamine, (2R)-2-(2-chlorophenyl)-2-(methylamino)cyclohexan-1-one]
Respiratory Rate, Max (Day 1, 15 minutes): 22 breaths/minute | Respiratory Rate, Mean (Day 1, 15 minutes): 16.0 breaths/minute | Respiratory Rate, Median (Day 1, 15 minutes): 16.0 breaths/minute | Respiratory Rate, Min (Day 1, 15 minutes): 14 breaths/minute | Respiratory Rate, Max (Day 1, 40 minutes): 18 breaths/minute | Respiratory Rate, Mean (Day 1, 40 minutes): 15.7 breaths/minute | Respiratory Rate, Median (Day 1, 40 minutes): 16.0 breaths/minute | Respiratory Rate, Min (Day 1, 40 minutes): 13 breaths/minute | Respiratory Rate, Max (Day 1, 60 minutes): 17 breaths/minute | Respiratory Rate, Mean (Day 1, 60 minutes): 15.4 breaths/minute | Respiratory Rate, Median (Day 1, 60 minutes): 15.5 breaths/minute | Respiratory Rate, Min (Day 1, 60 minutes): 14 breaths/minute | Respiratory Rate, Max (Day 1, 2 hours): 18 breaths/minute | Respiratory Rate, Mean (Day 1, 2 hours): 15.9 breaths/minute | Respiratory Rate, Median (Day 1, 2 hours): 16.0 breaths/minute | Respiratory Rate, Min (Day 1, 2 hours): 13 breaths/minute | Respiratory Rate, Max (Day 1, 4 hours): 21 breaths/minute | Respiratory Rate, Mean (Day 1, 4 hours): 16.1 breaths/minute | Respiratory Rate, Median (Day 1, 4 hours): 16.0 breaths/minute | Respiratory Rate, Min (Day 1, 4 hours): 14 breaths/minute | Respiratory Rate, Max (Day 1, 6 hours): 18 breaths/minute | Respiratory Rate, Mean (Day 1, 6 hours): 15.9 breaths/minute | Respiratory Rate, Median (Day 1, 6 hours): 16.0 breaths/minute | Respiratory Rate, Min (Day 1, 6 hours): 14 breaths/minute | Respiratory Rate, Max (Day 2 - Discharge): 21 breaths/minute | Respiratory Rate, Mean (Day 2 - Discharge): 15.9 breaths/minute | Respiratory Rate, Median (Day 2 - Discharge): 16.0 breaths/minute | Respiratory Rate, Min (Day 2 - Discharge): 14 breaths/minute | Respiratory Rate, Max (Day 8): 18 breaths/minute | Respiratory Rate, Mean (Day 8): 15.9 breaths/minute | Respiratory Rate, Median (Day 8): 16.0 breaths/minute | Respiratory Rate, Min (Day 8): 14 breaths/minute | Respiratory Rate, Max (Day 15): 18 breaths/minute | Respiratory Rate, Mean (Day 15): 15.7 breaths/minute | Respiratory Rate, Median (Day 15): 16.0 breaths/minute | Respiratory Rate, Min (Day 15): 14 breaths/minute | Respiratory Rate, Change from Baseline, Max (to Day 1, 15 minutes): 3 breaths/minute | Respiratory Rate, Change from Baseline, Mean (to Day 1, 15 minutes): 0.1 breaths/minute | Respiratory Rate, Change from Baseline, Median (to Day 1, 15 minutes): 0.0 breaths/minute | Respiratory Rate, Change from Baseline, Min (to Day 1, 15 minutes): −3 breaths/minute | Respiratory Rate, Change from Baseline, Max (to Day 1, 40 minutes): 2 breaths/minute | Respiratory Rate, Change from Baseline, Mean (to Day 1, 40 minutes): −0.2 breaths/minute | Respiratory Rate, Change from Baseline, Median (to Day 1, 40 minutes): 0.0 breaths/minute | Respiratory Rate, Change from Baseline, Min (to Day 1, 40 minutes): −5 breaths/minute | Respiratory Rate, Change from Baseline, Max (to Day 1, 60 minutes): 3 breaths/minute | Respiratory Rate, Change from Baseline, Mean (to Day 1, 60 minutes): −0.4 breaths/minute | Respiratory Rate, Change from Baseline, Median (to Day 1, 60 minutes): 0.0 breaths/minute | Respiratory Rate, Change from Baseline, Min (to Day 1, 60 minutes): −5 breaths/minute | Respiratory Rate, Change from Baseline, Max (to Day 1, 2 hours): 3 breaths/minute | Respiratory Rate, Change from Baseline, Mean (to Day 1, 2 hours): −0.1 breaths/minute | Respiratory Rate, Change from Baseline, Median (to Day 1, 2 hours): 0.0 breaths/minute | Respiratory Rate, Change from Baseline, Min (to Day 1, 2 hours): −2 breaths/minute | Respiratory Rate, Change from Baseline, Max (to Day 1, 4 hours): 2 breaths/minute | Respiratory Rate, Change from Baseline, Mean (to Day 1, 4 hours): 0.2 breaths/minute | Respiratory Rate, Change from Baseline, Median (to Day 1, 4 hours): 0.0 breaths/minute | Respiratory Rate, Change from Baseline, Min (to Day 1, 4 hours): −2 breaths/minute | Respiratory Rate, Change from Baseline, Max (to Day 1, 6 hours): 2 breaths/minute | Respiratory Rate, Change from Baseline, Mean (to Day 1, 6 hours): −0.0 breaths/minute | Respiratory Rate, Change from Baseline, Median (to Day 1, 6 hours): 0.0 breaths/minute | Respiratory Rate, Change from Baseline, Min (to Day 1, 6 hours): −3 breaths/minute | Respiratory Rate, Change from Baseline, Max (to Day 2 - Discharge): 1 breaths/minute | Respiratory Rate, Change from Baseline, Mean (to Day 2 - Discharge): −0.1 breaths/minute | Respiratory Rate, Change from Baseline, Median (to Day 2 - Discharge): 0.0 breaths/minute | Respiratory Rate, Change from Baseline, Min (to Day 2 - Discharge): −4 breaths/minute | Respiratory Rate, Change from Baseline, Max (to Day 8): 3 breaths/minute | Respiratory Rate, Change from Baseline, Mean (to Day 8): −0.1 breaths/minute | Respiratory Rate, Change from Baseline, Median (to Day 8): 0.0 breaths/minute | Respiratory Rate, Change from Baseline, Min (to Day 8): −5 breaths/minute | Respiratory Rate, Change from Baseline, Max (to Day 15): 1 breaths/minute | Respiratory Rate, Change from Baseline, Mean (to Day 15): −0.3 breaths/minute | Respiratory Rate, Change from Baseline, Median (to Day 15): 0.0 breaths/minute | Respiratory Rate, Change from Baseline, Min (to Day 15): −6 breaths/minute
